According to US20220117958A1, “COMPOSITIONS AND METHODS FOR INHIBITING ACSS2” (THE TRUSTEES OF THE UNIVERSITY OF PENNSYLVANIA, priority 2018, published 2022):
Converted amounts (≈) assume the structure as drawn. “And” between values parts separate entries of the source, which are not always exact repeats. Equal entries are not always repeated. Where two headings read alike, the source gives them in different places. Marks after values point to notes of the source that are not given here.

Tests used:
[1] = In vivo PK, IV dose, Terminal - brain (brain availability); design: species or system Rat (SD); details: for Brain concentration, mean / Brain concentration, individual animal: IV 1 mg/kg; for Brain concentration, individual animal: Rat
Method: Table 3 and FIG. 5 depict the brain availability of ADG I-204, ADG I-205, ADG I-206, and ADG I-207 after IV administration of 1 mg/kg dose.

[2] = Protein binding via Rapid Equilibrium Dialysis - plasma; type: in vitro ADME; details: Rat (SD) plasma, 2 μM
Source text: (§1) Table 20 provides results of in vitro and in vivo pharmacokinetics performed for each of the represented compounds.

[3] = In vivo PK, IV dose, plasma; design: species or system Rat (SD); details: for Plasma concentration, mean / Plasma concentration, individual animal: IV 1 mg/kg, listed as ADG I-204, 1 mg/kg
Source text: as §1
(§2) Tables 4 and 5 depict the summary of rat plasma sample concentrations after administration of ADG I-204. FIG. 6 provides a summary of rat plasma and brain concentrations.

[4] = Microsomal stability assay (half-life), rat; type: in vitro ADME; details: Rat (SD) microsomes, read-out: Microsomal stability T1/2
Source text: as §1

[5] = In vivo PK, oral gavage, plasma; design: species or system Rat (SD); details: PO 5 mg/kg; for Plasma concentration, mean: Rat (SD), BQL = below quantitation limit (1.00 ng/mL); for Plasma concentration, individual animal: Rat, BQL limit 1.00 ng/mL
Source text: as §1, §2

[6] = Microsomal stability assay (half-life), mouse; type: in vitro ADME; details: Mouse (CD1) microsomes, read-out: Microsomal stability T1/2
Source text: as §1

[7] = tested on: H3K9ac; test: Western blot, differentiated CAD cell lysates, H3K9ac levels; type: cell-based; details: differentiated CAD cells, DMSO = 100.00%
Source text: as §1

[8] = Turbidity-based aqueous solubility; type: physicochemical; details: aqueous solution (composition not given), kinetic from dmso stock, read-out: highest soluble concentration
Source text: as §1

[9] = Microsomal stability assay (half-life), human; type: in vitro ADME; details: Human microsomes, read-out: Microsomal stability T1/2
Source text: as §1

In the case of `CCCCCNC(=O)Nc1ccc2nc(-c3cccs3)c(-c3cccs3)nc2c1` [ADG-204], the “Brain concentration, mean” value ([1]; Rat (SD), 4 hr, BQL limit 10.0 ng/g (204, 206), 20.0 ng/g (205, 207)) is reported as “BQL”, the “Brain concentration, mean” value ([1]; Rat (SD), 8 hr, BQL limit 10.0 ng/g (204, 206), 20.0 ng/g (205, 207)) is reported as “BQL” and the “Brain concentration, mean” value ([1]; Rat (SD), 24 hr, BQL limit 10.0 ng/g (204, 206), 20.0 ng/g (205, 207)) is reported as “BQL”. The “Brain concentration, individual animal” value ([1]; 0.0830 hr, third animal received only 70% of the test article, listed as ADG I-204, 1 mg/kg) was 637 ng/g and 583 ng/g and 242*** ng/g, the “Brain concentration, individual animal” value ([1]; 1.00 hr, listed as ADG I-204, 1 mg/kg) was 119 ng/g and 60.3 ng/g and 149 ng/g and the “Brain concentration, individual animal” value ([1]; 4.00 hr, BQL limit 10.0 ng/g (204, 206), 20.0 ng/g (205, 207)) was “BQL”. For the same compound, the “Brain concentration, individual animal” value ([1]; 8.00 hr, BQL limit 10.0 ng/g (204, 206), 20.0 ng/g (205, 207)) was “BQL”, the “Brain concentration, individual animal” value ([1]; 24.0 hr, BQL limit 10.0 ng/g (204, 206), 20.0 ng/g (205, 207)) was “BQL” and the concentration at 0.083 h ([1]; SD, rat, brain, iv, 1 mg/kg, Rat (SD), 0.083 hr) was 487 ng/g. The concentration at 1 h ([1]; SD, rat, brain, iv, 1 mg/kg, Rat (SD), 1 hr, read-out: Brain concentration, mean) was 109 ng/g, the “Protein binding, plasma: % Protein free” value [2] was 0.1994 % Protein free and the “Plasma concentration, mean” value ([3]; Rat (SD), 4 hr, terminal) was 4 ng/mL. For the same compound, the “Plasma concentration, mean” value ([3]; Rat (SD), 8 hr, terminal) was 4 ng/mL, the “Plasma concentration, mean” value ([3]; Rat (SD), 24 hr, terminal, BQL limit 1.00 ng/mL (ADG I-205: 2.00 ng/mL)) was 2 ng/mL and the “Plasma concentration, individual animal” value ([3]; Rat, 0.0830 hr, terminal, third animal received only 70% of the test article) was 2340 ng/mL and 1170*** ng/mL. The “Plasma concentration, individual animal” value ([3]; Rat, 0.500 hr, not terminal (animals 4, 5 and 6)) was 4190** ng/mL and 357 ng/mL and 634 ng/mL, the “Plasma concentration, individual animal” value ([3]; Rat, 1.00 hr, terminal) was 278 ng/mL and 103 ng/mL and 279 ng/mL and the “Plasma concentration, individual animal” value ([3]; Rat, 4.00 hr, terminal, BQL limit 1.00 ng/mL (ADG I-205: 2.00 ng/mL)) was 4.35 ng/mL. The “Plasma concentration, individual animal” value ([3]; Rat, 8.00 hr, terminal, BQL limit 1.00 ng/mL (ADG I-205: 2.00 ng/mL)) was 2.97 ng/mL and 5.93 ng/mL, the “Plasma concentration, individual animal” value ([3]; Rat, 24.0 hr, terminal, BQL limit 1.00 ng/mL (ADG I-205: 2.00 ng/mL)) was 1.09 ng/mL and BQL and the concentration at 0.083 h ([3]; SD, rat, plasma, iv, 1 mg/kg, Rat (SD), 0.083 hr, terminal, read-out: Plasma concentration, mean) was 1910 ng/mL. It also gave a concentration at 0.5 h ([3]; SD, rat, plasma, iv, 1 mg/kg, Rat (SD), 0.500 hr, not a terminal time point (animals 4, 5 and 6)) of 1730 ng/mL, a concentration at 1 h ([3]; SD, rat, plasma, iv, 1 mg/kg, Rat (SD), 1 hr, terminal, read-out: Plasma concentration, mean) of 220 ng/mL and a concentration at 4 h ([3]; SD, rat, plasma, iv, 1 mg/kg, Rat (SD), 4 hr, terminal, read-out: Plasma concentration, mean) of 4.49 ng/mL. For the same compound, the concentration at 8 h ([3]; SD, rat, plasma, iv, 1 mg/kg, Rat (SD), 8 hr, terminal, read-out: Plasma concentration, mean) was 4.27 ng/mL, the concentration at 24 h ([3]; SD, rat, plasma, iv, 1 mg/kg, Rat (SD), 24 hr, terminal, BQL limit 1.00 ng/mL (ADG I-205: 2.00 ng/mL), read-out: Plasma concentration, mean) was 1.52 ng/mL and the concentration at 0.083 h ([3]; SD, rat, plasma, iv, 1 mg/kg, Rat, 0.0830 hr, terminal, third animal received only 70% of the test article, read-out: Plasma concentration, individual animal) was 2220 ng/mL. It also gave a concentration at 4 h ([3]; SD, rat, plasma, iv, 1 mg/kg, Rat, 4.00 hr, terminal, BQL limit 1.00 ng/mL (ADG I-205: 2.00 ng/mL), read-out: Plasma concentration, individual animal) of 8.63 ng/mL, a concentration at 8 h ([3]; SD, rat, plasma, iv, 1 mg/kg, Rat, 8.00 hr, terminal, BQL limit 1.00 ng/mL (ADG I-205: 2.00 ng/mL), read-out: Plasma concentration, individual animal) of 3.92 ng/mL and a concentration at 24 h ([3]; SD, rat, plasma, iv, 1 mg/kg, Rat, 24.0 hr, terminal, BQL limit 1.00 ng/mL (ADG I-205: 2.00 ng/mL), read-out: Plasma concentration, individual animal) of 1.95 ng/mL. The half-life at 2 μM [4] was 3.92 h, the “Plasma concentration, mean” value ([5]; 0.25 hr) was “BQL” and the “Plasma concentration, mean” value ([5]; 0.5 hr) was “BQL”. The “Plasma concentration, mean” value ([5]; 1 hr) was “BQL”, the “Plasma concentration, mean” value ([5]; 4 hr) was “BQL” and the “Plasma concentration, mean” value ([5]; 8 hr) was “BQL”. The “Plasma concentration, mean” value ([5]; 24 hr) was “BQL”, the “Plasma concentration, individual animal” value ([5]; 0.250 hr) was “BQL” and the “Plasma concentration, individual animal” value ([5]; 0.500 hr) was “BQL”. The “Plasma concentration, individual animal” value ([5]; 1.00 hr) was “BQL”, the “Plasma concentration, individual animal” value ([5]; 4.00 hr) was “BQL” and the “Plasma concentration, individual animal” value ([5]; 8.00 hr) was “BQL”. The “Plasma concentration, individual animal” value ([5]; 24.0 hr) was “BQL”, the half-life at 2 μM [6] was 5.02 h and the “H3K9ac levels normalized to H3 and DMSO control” value (“H3K9ac levels normalized” below) ([7]; 1 uM) was 22.30%. For the same compound, the “H3K9ac levels normalized” value ([7]; 5 uM) was 13.48%, the “H3K9ac levels normalized” value ([7]; 10 uM) was 8.32% and the “H3K9ac levels normalized” value ([7]; 20 uM) was 17.03%. For the same compound, the “H3K9ac levels normalized” value ([7]; 50 uM) was 9.64%, the “H3K9ac levels normalized” value ([7]; 100 uM) was 24.00% and the solubility [8] was 2 µM (≈ 0.845 µg/mL). It also gave a half-life at 2 μM [9] of 1.16 h.
